18 compounds from patent publication US8653092B2, “Tetrahydro-pyrido-pyrimidine derivatives” (Novartis AG, priority 2010, dated 2014) can be followed below.

One assay deals with PI3K delta (Homo sapiens (Human), UniProt O00329). Nature of the assay: Enzymatic PI3K delta isoform inhibition (lipid kinase, Kinase-Glo luminescence). The conditions noted are these: enzymatic assay. In kind it is biochemical. Background: Kinase-Glo measures the ATP left after a reaction by luminescence.
A further assay addresses PI3K alpha (Homo sapiens (Human), UniProt P42336). Nature of the assay: Enzymatic PI3K alpha isoform inhibition (lipid kinase, Kinase-Glo luminescence). Type of assay: biochemical. Particulars: enzymatic assay.

Sequence of PI3K delta (O00329 other isoform, or with tags, fused parts or gaps linker GGGGGG): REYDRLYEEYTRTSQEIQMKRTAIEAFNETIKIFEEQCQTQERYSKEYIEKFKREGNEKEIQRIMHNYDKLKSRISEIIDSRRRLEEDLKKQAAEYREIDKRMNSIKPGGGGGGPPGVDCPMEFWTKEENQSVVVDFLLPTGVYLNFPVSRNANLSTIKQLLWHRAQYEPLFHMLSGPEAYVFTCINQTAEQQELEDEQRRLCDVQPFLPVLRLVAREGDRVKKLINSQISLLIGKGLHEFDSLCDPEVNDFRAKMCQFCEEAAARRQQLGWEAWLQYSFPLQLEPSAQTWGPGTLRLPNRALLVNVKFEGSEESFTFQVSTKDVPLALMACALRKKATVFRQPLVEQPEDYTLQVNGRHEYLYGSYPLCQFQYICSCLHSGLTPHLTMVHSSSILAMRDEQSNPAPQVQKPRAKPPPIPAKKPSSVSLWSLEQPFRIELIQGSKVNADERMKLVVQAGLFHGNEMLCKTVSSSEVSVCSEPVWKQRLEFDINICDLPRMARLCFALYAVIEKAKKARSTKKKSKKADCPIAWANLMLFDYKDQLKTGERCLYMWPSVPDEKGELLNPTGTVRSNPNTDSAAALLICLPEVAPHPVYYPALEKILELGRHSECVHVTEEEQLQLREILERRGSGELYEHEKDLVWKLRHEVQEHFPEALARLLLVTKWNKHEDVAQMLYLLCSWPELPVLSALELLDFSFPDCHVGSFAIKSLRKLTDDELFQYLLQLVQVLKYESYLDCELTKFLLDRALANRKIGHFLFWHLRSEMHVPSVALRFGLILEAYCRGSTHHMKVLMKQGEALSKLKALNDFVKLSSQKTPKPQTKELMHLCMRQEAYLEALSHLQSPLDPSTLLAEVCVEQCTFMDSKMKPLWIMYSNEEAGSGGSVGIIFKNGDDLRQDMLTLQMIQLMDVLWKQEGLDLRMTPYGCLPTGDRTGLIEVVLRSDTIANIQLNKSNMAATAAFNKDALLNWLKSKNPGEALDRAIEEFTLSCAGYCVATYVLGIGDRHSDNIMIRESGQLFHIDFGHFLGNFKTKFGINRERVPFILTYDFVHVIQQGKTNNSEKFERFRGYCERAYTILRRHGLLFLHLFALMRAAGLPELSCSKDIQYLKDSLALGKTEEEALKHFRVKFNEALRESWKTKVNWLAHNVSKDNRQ
Sequence of PI3K alpha (P42336 other isoform, or with tags, fused parts or gaps): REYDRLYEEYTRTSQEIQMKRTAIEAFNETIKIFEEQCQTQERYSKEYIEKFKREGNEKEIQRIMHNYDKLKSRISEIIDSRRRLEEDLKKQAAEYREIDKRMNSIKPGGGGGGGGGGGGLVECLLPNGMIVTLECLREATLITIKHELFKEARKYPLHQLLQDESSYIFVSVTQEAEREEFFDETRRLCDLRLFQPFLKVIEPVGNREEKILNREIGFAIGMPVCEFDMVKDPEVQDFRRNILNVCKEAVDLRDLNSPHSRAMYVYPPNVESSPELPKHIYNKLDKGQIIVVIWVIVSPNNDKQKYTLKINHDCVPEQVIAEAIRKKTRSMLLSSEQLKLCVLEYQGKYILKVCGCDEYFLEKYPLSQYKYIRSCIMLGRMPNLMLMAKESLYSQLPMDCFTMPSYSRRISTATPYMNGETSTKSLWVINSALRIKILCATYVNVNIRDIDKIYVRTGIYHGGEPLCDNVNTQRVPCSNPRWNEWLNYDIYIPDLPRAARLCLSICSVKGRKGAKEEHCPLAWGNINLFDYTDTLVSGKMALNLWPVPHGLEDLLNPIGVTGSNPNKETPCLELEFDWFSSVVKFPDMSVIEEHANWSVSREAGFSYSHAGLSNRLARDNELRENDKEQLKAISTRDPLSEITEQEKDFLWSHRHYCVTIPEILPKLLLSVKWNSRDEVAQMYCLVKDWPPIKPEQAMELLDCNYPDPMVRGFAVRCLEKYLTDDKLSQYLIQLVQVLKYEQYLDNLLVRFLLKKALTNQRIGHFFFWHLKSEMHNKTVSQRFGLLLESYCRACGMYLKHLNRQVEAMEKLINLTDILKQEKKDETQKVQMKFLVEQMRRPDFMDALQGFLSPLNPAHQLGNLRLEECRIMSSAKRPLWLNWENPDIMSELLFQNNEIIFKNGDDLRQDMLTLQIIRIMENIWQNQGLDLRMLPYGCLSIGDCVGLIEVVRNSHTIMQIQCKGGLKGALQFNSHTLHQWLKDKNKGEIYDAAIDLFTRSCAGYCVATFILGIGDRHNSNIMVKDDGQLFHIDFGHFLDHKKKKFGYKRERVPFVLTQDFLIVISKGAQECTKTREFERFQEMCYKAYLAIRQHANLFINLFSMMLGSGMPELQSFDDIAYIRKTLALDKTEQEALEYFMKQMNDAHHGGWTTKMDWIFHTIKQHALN

For the compound `COc1ncc(N2CCc3ncnc(O[C@H]4CCN(C(=O)C5CCN(C(C)=O)CC5)C4)c3C2)cc1C(F)(F)F` [Example 92, 1-(4-{(S)-3-[6-(6-Methoxy-5-trifluoromethyl-pyridin-3-yl)-5,6,7,8-tetrahydro-pyrido[4,3-d]pyrimidin-4-yloxy]-pyrrolidine-1-carbonyl}-piperidin-1-yl)-ethanone], the IC50 on PI3K delta was 9 nM; against PI3K alpha it was 2540 nM.
For `COc1ncc(N2CCc3ncnc(O[C@H]4CCN(C(=O)C5CCOC(C)(C)C5)C4)c3C2)cc1C` (stereo partly drawn) [Example 38, (2,2-Dimethyl-tetrahydro-pyran-4yl)-{(S)-3-[6-(6-Methoxy-5-methyl-pyridin-3-yl)-5,6,7,8-tetrahydro-pyrido[4,3-d]pyrimidin-4-yloxy]-pyrrolidin-1-yl}-methanone] the same measures were 16 nM and 3310 nM.
For `COc1ncc(N2CCc3ncnc(O[C@H]4CCN(C(=O)N5CCOCC5)C4)c3C2)cc1C(F)(F)F` [Example 86, -{(S)-3-[6-(6-Methoxy-5-trifluoromethyl-pyridin-3-yl)-5,6,7,8-tetrahydro-pyrido[4,3-d]pyrimidin-4-yloxy]-pyrrolidin-1-yl}-morpholin-4-yl-methanone] the same measures were 20 nM and 1330 nM.
For the compound `COc1ncc(N2CCc3ncnc(O[C@H]4CCN(C(=O)c5ccno5)C4)c3C2)cc1C` [Example 34, Isoxazol-5-yl-{(S)-3-[6-(6-Methoxy-5-methyl-pyridin-3-yl)-5,6,7,8-tetrahydro-pyrido[4,3-d]pyrimidin-4-yloxy]-pyrrolidin-1-yl}-methanone], the IC50 against PI3K delta turned out to be 14 nM; against PI3K alpha it was 1650 nM.
`COc1ncc(N2CCc3ncnc(O[C@H]4CCN(C(=O)c5conc5C)C4)c3C2)cc1C` [Example 32, {(S)-3-[6-(6-Methoxy-5-methyl-pyridin-3-yl)-5,6,7,8-tetrahydro-pyrido[4,3-d]pyrimidin-4-yloxy]-pyrrolidin-1-yl}-(3-methyl-isoxazol-4-yl)-methanone]: the IC50 at PI3K delta turned out to be 23 nM; at PI3K alpha it was 2040 nM.
For `COc1cc(N2CCc3ncnc(O[C@H]4CCN(C(=O)c5oc(C)nc5C)C4)c3C2)cnc1OC` [Example 25, {(S)-3-[6-(5,6-Dimethoxy-pyridin-3-yl)-5,6,7,8-tetrahydro-pyrido[4,3-d]pyrimidin-4-yloxy]-pyrrolidin-1-yl}-(2,4-dimethyl-oxazol-5-yl)-methanone] the same measures were 26 nM and 820 nM.
As to `COc1ncc(N2CCc3ncnc(N[C@H]4CCN(C(=O)C5CCOC(C)(C)C5)C4)c3C2)cc1C` (stereo partly drawn) [Example 80, (2,2-Dimethyl-tetrahydro-pyran-4-yl)-{(S)-3-[6-(6-methoxy-5-methyl-pyridin-3-yl)-5,6,7,8-tetrahydro-pyrido[4,3-d]pyrimidin-4-ylamino]-pyrrolidin-1-yl}-methanone], the IC50 against PI3K delta came to 16 nM; at PI3K alpha it was 430 nM.
For `COc1ncc(N2CCc3ncnc(O[C@H]4CCN(C(=O)c5ncoc5C)C4)c3C2)cc1C` [Example 30, {(S)-3-[6-(6-Methoxy-5-methyl-pyridin-3-yl)-5,6,7,8-tetrahydro-pyrido[4,3-d]pyrimidin-4-yloxy]-pyrrolidin-1-yl}-(5-methyl-oxazol-4-yl)-methanone] the same measures were 40 nM and 2830 nM.
For `COc1ncc(N2CCc3ncnc(O[C@H]4CCN(C(=O)C5CCOCC5)C4)c3C2)cc1Cl` [Example 56, {(S)-3-[6-(5-Chloro-6-methoxy-pyridin-3-yl)-5,6,7,8-tetrahydro-pyrido[4,3-d]pyrimidin-4-yloxy]-pyrrolidin-1-yl}-(tetrahydro-pyran-4-yl)-methanone] the same measures were 13 nM and 860 nM.
For `COc1cc(N2CCc3ncnc(O[C@H]4CCN(C(=O)c5coc(C)n5)C4)c3C2)cnc1OC` [Example 23, {(S)-3-[6-(5,6-Dimethoxy-pyridin-3-yl)-5,6,7,8-tetrahydro-pyrido[4,3-d]pyrimidin-4-yloxy]-pyrrolidin-1-yl}-(2-methyl-oxazol-4-yl)-methanone] the same measures were 10 nM and 129 nM.
With `COc1ncc(N2CCc3ncnc(N[C@H]4CCN(C(=O)c5cnco5)C4)c3C2)cc1C` [Example 78, {(S)-3-[6-(6-Methoxy-5-methyl-pyridin-3-yl)-5,6,7,8-tetrahydro-pyrido[4,3-d]pyrimidin-4-ylamino]-pyrrolidin-1-yl}-oxazol-5-yl-methanone], the IC50 was 12 nM at PI3K delta and 384 nM on PI3K alpha.
The matching figures for `COc1ncc(N2CCc3ncnc(O[C@H]4CCN(C(=O)C5CCOCC5)C4)c3C2)cc1C(F)(F)F` [Example 61, {(S)-3-[6-(6-Methoxy-5-trifluoromethyl-pyridin-3-yl)-5,6,7,8-tetrahydro-pyrido[4,3-d]pyrimidin-4-yloxy]-pyrrolidin-1-yl}-(tetrahydro-pyran-4-yl)-methanone]: 12 nM and 589 nM.
As to `COc1ncc(N2CCc3ncnc(O[C@H]4CCN(C(=O)c5ccn(C)n5)C4)c3C2)cc1C#N` [Example 37, 2-Methoxy-5-{4-[(S)-1-(1-methyl-1H-pyrazole-3-carbonyl)-pyrrolidin-3-yloxy]-7,8-dihydro-5H-pyrido[4,3-d]pyrimidin-6-yl}-nicotinonitrile], the IC50 against PI3K delta is 31 nM; against PI3K alpha it was 7020 nM.
For `COc1ncc(N2CCc3ncnc(N[C@H]4CCN(C(=O)c5cocn5)C4)c3C2)cc1C` [Example 79, {(S)-3-[6-(6-Methoxy-5-methyl-pyridin-3-yl)-5,6,7,8-tetrahydro-pyrido[4,3-d]pyrimidin-4-ylamino]-pyrrolidin-1-yl}-oxazol-4-yl-methanone] the same measures were 17 nM and 781 nM.
For `COc1ncc(N2CCc3ncnc(O[C@H]4CCN(C(=O)C5CC(OC)C5)C4)c3C2)cc1C` (stereo partly drawn) [Example 15, (3-Methoxy-cyclobutyl)-{(S)-3-[6-(6-methoxy-5-methyl-pyridin-3-yl)-5,6,7,8-tetrahydro-pyrido[4,3-d]pyrimidin-4-yloxy]-pyrrolidin-1-yl}-methanone] the same measures were 14 nM and 1630 nM.
The matching figures for `CCC(=O)N1CC[C@H](Oc2ncnc3c2CN(c2cnc(OC)c(OC)c2)CC3)C1` [Example 4, 1-{(S)-3-[6-(5,6-Dimethoxy-pyridin-3-yl)-5,6,7,8-tetrahydro-pyrido[4,3-d]pyrimidin-4-yloxy]-pyrrolidin-1-yl}-propan-1-one]: 33 nM and 1760 nM.
With `COc1ncc(N2CCc3ncnc(O[C@H]4CCN(C(=O)C5CCC(=O)N5)C4)c3C2)cc1C(F)(F)F` (stereo partly drawn) [Example 46, 5-{(S)-3-[6-(6-Methoxy-5-trifluoromethyl-pyridin-3-yl)-5,6,7,8-tetrahydro-pyrido[4,3-d]pyrimidin-4-yloxy]-pyrrolidine-1-carbonyl}-pyrrolidin-2-one], the IC50 against PI3K delta was 27 nM; against PI3K alpha, 803 nM.
In the case of `COc1ncc(N2CCc3ncnc(O[C@H]4CCN(C(=O)c5ccon5)C4)c3C2)cc1C` [Example 33, Isoxazol-3-yl-{(S)-3-[6-(6-Methoxy-5-methyl-pyridin-3-yl)-5,6,7,8-tetrahydro-pyrido[4,3-d]pyrimidin-4-yloxy]-pyrrolidin-1-yl}-methanone], the figures for the IC50 against PI3K delta and at PI3K alpha were 18 nM and 1970 nM, respectively.

By IC50 is commonly meant the concentration needed to halve the response being measured. High values mean lower potency, low ones higher potency.
